“And” between values parts separate entries of the source, which are not always exact repeats. Equal values may be shown once. Read-outs that look alike come from different tables or passages of the source.
Assays:
[1] = system: acute hippocampal slices (area CA1); experiment: f-EPSP recovery after transient OGD in acute hippocampal slices; type: cell-based, mouse; details: for mean f-EPSP slope 80-90 min after the onset of OGD: 25 min OGD, % of pre-OGD baseline
Protocol: (§1) Adult mice were killed by cervical dislocation and the heads were immediately immersed in freshly prepared ice-cold artificial cerebrospinal fluid (aCSF: 119 mM NaCl, 11 mM D-glucose, 1.3 mM MgCl2.6H2O, 1.3 mM NaH2PO4, 2.5 mM KCl, 2.5 mM CaCl2, 26 mM NaHCO3, gassed with 95% O2/5% CO2 for a minimum of 20-min) for at least 3 min. Brains were quickly removed and hippocampi were extracted for electrophysiological recordings. Acute slices (400 μm thick) were prepared with a vibratome (Leica VT 1000S, Germany) in ice-cold oxygenated aCSF. Slices were transferred to an interface chamber at 34° C. for 40 to 50 min then kept at room temperature for at least 1-2 hours before recording. Recordings were performed in a submersion chamber (Slice Mini Chamber III/IV, Luigs & Neumann, Germany) continuously perfused with aCSF at approximately 1.1 ml/min. A monopolar electrode was placed in the stratum radiatum to activate Schaffer collaterals and test stimuli were applied at 0.033 Hz at an intensity set to evoke 1/3 of the maximum f-EPSP. Evoked f-EPSP were recorded in the stratum radiatum with a borosilicate micropipette filled with NaCl 3M or aCSF. The signal was amplified with an AXOPATCH 200B amplifier (Axon Instruments/Molecular Devices, Germany) and sampled using pCLAMP. Baseline responses were recorded for 10-min or until stable. For extracellular recordings in example 8, a monopolar electrode is placed in the Schaffer collateral fibers, and stimulation is applied at 0.033 Hz with stimulus intensity ranging from 20 to 80 μA, yielding evoked field EPSPs (fEPSPs) of […]. fEPSPs are recorded in the stratum radiatum using a borosilicate micropipette filled with aCSF.
For each electrophysiological experiment, the average slope of individual f-EPSP was measured from the initial 1-1.5 ms-portion following the fiber volley using Clampfit (Axon Instruments, Germany). For statistical analyses, the f-EPSP slope was averaged over 1-min and analyzed by three-way analysis of variance (ANOVA) using Statview 5.0 with sequences (10-min) and stimulation (1-min bins) as repeated measures. […] Infarct volume and DNA fragmentation were analyzed by two-tailed t-tests. Western blots were evaluated by one-way ANOVA followed by LSD post-hoc tests. Statistical significance was set at p=0.05, data are presented as mean±SEM.
Graded doses of OA were used to inhibit both PP1 and PP2A, or PP2A alone.

PP1 [2] = details: literature ranges, cited from earlier work
PP2A = details: literature ranges, cited from earlier work
hippocampal slices = details: 1 μM OA; cited from earlier work
ERK1 = experiment: Western blot of phosphorylated ERK1 in slices subjected to OGD; details: control slices treated with tautomycin (3 nM) and subjected to OGD
Protocol: (§2) Acute slices (hippocampus, cortex and striatum) were exposed to 15 to 25-min of hypoxic/aglycemic conditions by perfusion with aCSF containing no glucose (replaced with equimolar sucrose) and gassed with N2/CO2 (95/5%) (Lobner and Lipton, 1993; Raley-Susman and Lipton, 1990). […] The OGD solution reached the recording chamber within 30 seconds and replaced the normoxic aCSF within 2-3 min.
(§3) Drugs for slice recordings were bath-applied for 2 hours before recording in oxygenated aCSF. Okadaic acid (Alexis Corporation, Switzerland) and tautomycin (Alexis Corporation and Sigma Aldrich, Switzerland) were dissolved in DMSO (30 mM) and methanol or ethanol (1 mM), respectively, and stock solutions were diluted further in aCSF the day of the experiment. The respective solvents were used for drug-control experiments. For both mutant and control slices, the aCSF was supplemented with doxycycline hydrochloride (Sigma, Buchs, Switzerland) at 8 ng/ml.
(§4) Tissue samples from the striatum ipsilateral and contralateral to MCAO or from acute forebrain slices (hippocampus, cortex and striatum) were homogenized in lysis buffer and centrifuged. Supernatants were resolved on SDS-PAGE and proteins were transferred onto PVDF membranes. […] The band intensity was determined by densitometry and corrected for protein loading using anti-β-actin antibody (A5316; Sigma) as an internal control.

[3] = system: hippocampal slices (Schaffer collaterals/CA1); experiment: LTD (f-EPSP slope) in hippocampal slices; type: cell-based, mouse; details: 1 nM tautomycin, LTD without OGD
Protocol: as §1, with “1.1 ml/min. […] Evoked f-EPSP” for “1.1 ml/min. A monopolar electrode was placed in the stratum radiatum to activate Schaffer collaterals and test stimuli were applied at 0.033 Hz at an intensity set to evoke 1/3 of the maximum f-EPSP. Evoked f-EPSP”, “or aCSF. […] Baseline responses” for “or aCSF. The signal was amplified with an AXOPATCH 200B amplifier (Axon Instruments/Molecular Devices, Germany) and sampled using pCLAMP. Baseline responses”, “with aCSF. […]” for “with aCSF.”

PP1 [4] = details: 1 nM tautomycin (submaximal dose); cited from earlier work
ERK2 = experiment: Western blot of phosphorylated ERK2 in slices subjected to OGD; details: control slices treated with tautomycin (3 nM) and subjected to OGD
Protocol: as §2, §3, §4

JNK1 = experiment: Western blot of phosphorylated JNK1 in slices subjected to OGD; details: PP1 inhibition (tautomycin) or OGD in vitro
Protocol: as §2, §3, §4

JNK2 = experiment: Western blot of phosphorylated JNK2 in slices subjected to OGD; details: PP1 inhibition (tautomycin) in vitro
Protocol: as §2, §3, §4

| SMILES | mean f-EPSP slope 80-90 min after the onset of OGD ([1]; 0.1 nM drug) [%] | mean f-EPSP slope 80-90 min after the onset of OGD ([1]; 1 nM drug) [%] | mean f-EPSP slope 80-90 min after the onset of OGD ([1]; 10 nM drug) [%] | mean f-EPSP slope 80-90 min after the onset of OGD ([1]; 100 nM drug) | mean f-EPSP slope 80-90 min after the onset of OGD ([1]; 1 μM drug) | IC50 (PP1 [2]) [nM] | IC50 (PP1 [2]; listed as okadaic acid) [nM] | IC50 (PP2A) | IC50 (PP2A; listed as okadaic acid) [nM] | effect on LTP induced by a single 1-sec train at 100 Hz (hippocampal slices) | f-EPSP slope after LTD+OGD, % of baseline 90 min after LTD induction ([1]; 1 nM tautomycin, I-1* mutant slices, LTD 10 min prior to OGD) [%] | mean f-EPSP slope 80-90 min after the onset of OGD ([1]; 3 nM drug) [%] | increase in phosphorylated ERK1 (ERK1) | f-EPSP slope after LTD, % of baseline at 90 min ([3]; I-1* mutant slices) [%] | f-EPSP slope after LTD, % of baseline at 90 min ([3]; control slices) [%] | PP1 inhibition (PP1 [4]) | increase in phosphorylated ERK2 (ERK2) | JNK1 phosphorylation (JNK1) | phosphorylated JNK2 (JNK2) |
| --- | --- | --- | --- | --- | --- | --- | --- | --- | --- | --- | --- | --- | --- | --- | --- | --- | --- | --- | --- |
| C=C1[C@@H](O)[C@@H]2O[C@]3(CC[C@H](/C=C/[C@@H](C)[C@@H]4CC(C)=C[C@@]5(O[C@H](C[C@@](C)(O)C(=O)O)CC[C@H]5O)O4)O3)CC[C@H]2O[C@@H]1[C@@H](O)C[C@H](C)[C@H]1O[C@@]2(CCCCO2)CC[C@H]1C [OA, okadaic acid] | 76.6±20.5 | 86.8±5.2 | 56.6±23.9 | 43.5±16.6% and 43.1±15.6% | 20.2±13.9% and 20.3±14.4% | 20 to 100 | 10 to 1300 | 0.1 to 1 nM | 0.02 to 1 | blocked | – | – | – | – | – | – | – | – | – |
| CO[C@H]([C@H](O)CC(=O)[C@@H](C)[C@@H](O)CC[C@@H](C)[C@@H]1O[C@]2(CC[C@@H](C)[C@H](CC[C@H](C)C(C)=O)O2)CC[C@@H]1C)[C@H](OC(=O)C[C@@H](O)C1=C(C)C(=O)OC1=O)C(C)C [tautomycin] | – | 88.6±1.5 | 4.4±2.9 | 0.9±1.3% | – | – | – | 10 to 23 nM and 10 to 20 nM | – | – | 37.0±10.8 | 31.4±4.6 | +366.8±48.6% | 96.3±3.6 | 85.2±3.0 | about 30% | +404.1±28.5% | not altered | did not increase |

Reference: US20100310543A1, “METHOD OF PREVENTING AND TREATING ACUTE BRAIN PATHOLOGIES” (UNIVERSITY OF ZURICH, priority 2007, published 2010)
